Data on two compounds can be found in publication PMC11683865, “CACHE Challenge #1: Docking with GNINA Is All You Need” (Journal of Chemical Information and Modeling, 2024).

The target of this experiment is T1, Leucine-rich repeat serine/threonine-protein kinase 2 (LRRK2), WD-40 repeat (WDR) domain (Homo sapiens, UniProt Q5S007).
T1 construct: WD-40 repeat (WDR) domain
T1 sequence (Q5S007 2142-2527): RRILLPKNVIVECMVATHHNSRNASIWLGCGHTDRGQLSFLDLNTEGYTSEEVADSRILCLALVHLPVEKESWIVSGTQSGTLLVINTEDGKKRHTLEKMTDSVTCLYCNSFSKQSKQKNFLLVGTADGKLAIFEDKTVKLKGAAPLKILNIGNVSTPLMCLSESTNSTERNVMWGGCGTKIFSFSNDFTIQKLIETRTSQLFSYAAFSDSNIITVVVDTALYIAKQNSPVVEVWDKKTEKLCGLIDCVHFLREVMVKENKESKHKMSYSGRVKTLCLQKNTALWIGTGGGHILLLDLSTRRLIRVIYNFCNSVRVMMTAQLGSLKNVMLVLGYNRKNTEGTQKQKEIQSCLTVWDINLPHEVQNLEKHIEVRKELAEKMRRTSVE
Description: SPR. The class given is binding.

Structures are written as SMILES. Read-outs that look alike come from different tables or passages of the source.

For the compound `O=C(CN1CCC2(C1)C(=O)Nc1ccccc12)Nc1ccc2c(c1)CCC2` (centres unmarked) [CACHE_1181_33], the dissociation constant Kd (usually the free concentration of one partner at which half of the binding sites on the other are occupied at equilibrium, for simple one-to-one binding) is above 100 µM.
Consider `O=C(NCc1ccc[nH]c1=O)N1CCC(CCc2ccc(F)cc2F)CC1` [CACHE_1181_50], for which, for the setting “read-out: Kd”, the Kd was above 100 µM.
